In patent US9981959B2, “Thiazolyl and oxazolyl urea, thiourea, guanidine and cyanoguanidine compounds as TrkA kinase inhibitors” (Array BioPharma Inc., priority 2012, dated 2018):

What was measured:
Experiment in all cases: KinaseProfiler off-target kinase profiling
Assay type in all cases: biochemical
Conditions in all cases: 10 μM, ATP near Km
JAK3 = target: T1, JAK3 (Homo sapiens, UniProt P52333)
T1 construct: purchased Millipore, Inc. (KinaseProfiler service)
Procedure: (§1) A representative compound of the invention (Example 2) was tested for off-target kinase activity at a concentration of 10 μM by Millipore, Inc. in their KinaseProfiler™ service against all the kinases available in their full kinase panel. The compound was run in duplicate at a concentration of ATP near the Km for each individual kinase according to Millipore's specifications. The results are shown in Table B. Data are reported as percent of control (POC) and are the average of the two replicates.

MKK7beta = target: T2, MKK7beta (Homo sapiens, UniProt O14733)
T2 construct: purchased Millipore, Inc. (KinaseProfiler service)
Procedure: as §1

PAK6 = target: T3, PAK6 (Homo sapiens, UniProt Q9NQU5)
T3 construct: purchased Millipore, Inc. (KinaseProfiler service)
Procedure: as §1

ZAP-70 = target: T4, ZAP-70 (Homo sapiens, UniProt P43403)
T4 construct: purchased Millipore, Inc. (KinaseProfiler service)
Procedure: as §1

CK2alpha2 = target: T5, CK2alpha2 (Homo sapiens, UniProt P19784)
T5 construct: purchased Millipore, Inc. (KinaseProfiler service)
Procedure: as §1

CAMK2b = target: T6, CAMK2b (Homo sapiens, UniProt Q13554)
T6 construct: purchased Millipore (KinaseProfiler service)
Procedure: as §1

AKT1 = target: T7, AKT1 (Homo sapiens, UniProt P31749)
T7 construct: purchased Millipore (KinaseProfiler service)
Procedure: as §1

Yes = target: T8, Yes (Homo sapiens, UniProt P07947)
T8 construct: purchased Millipore, Inc. (KinaseProfiler service)
Procedure: as §1

PRKG1alpha = target: T9, PRKG1alpha (Homo sapiens, UniProt Q13976)
T9 construct: purchased Millipore, Inc. (KinaseProfiler service)
Procedure: as §1

Flt3 = target: T10, Flt3 (Homo sapiens, UniProt P36888)
T10 construct: purchased Millipore, Inc. (KinaseProfiler service)
Procedure: as §1

p38gamma = target: T11, p38gamma (Homo sapiens, UniProt P53778)
T11 construct: purchased Millipore, Inc. (KinaseProfiler service)
Procedure: as §1

CK2 = target: T12, CK2 (Homo sapiens, UniProt P68400)
T12 construct: purchased Millipore, Inc. (KinaseProfiler service)
Procedure: as §1

Rsk1 = target: T13, Rsk1 (Homo sapiens, UniProt Q15418)
T13 construct: purchased Millipore, Inc. (KinaseProfiler service)
Procedure: as §1

DCAMKL2 = target: T14, DCAMKL2 (Homo sapiens, UniProt Q8N568)
T14 construct: purchased Millipore, Inc. (KinaseProfiler service)
Procedure: as §1

MAP3K5 = target: T15, MAP3K5 (Homo sapiens, UniProt Q99683)
T15 construct: purchased Millipore, Inc. (KinaseProfiler service)
Procedure: as §1

NLK = target: T16, NLK (Homo sapiens, UniProt Q9UBE8)
T16 construct: purchased Millipore, Inc. (KinaseProfiler service)
Procedure: as §1

FGFR1 = target: T17, FGFR1 (Homo sapiens, UniProt P11362)
T17 construct: purchased Millipore, Inc. (KinaseProfiler service)
Procedure: as §1

MSK2 = target: T18, MSK2 (Homo sapiens, UniProt O75676)
T18 construct: purchased Millipore, Inc. (KinaseProfiler service)
Procedure: as §1

PKAC-alpha = target: T19, PKAC-alpha (Homo sapiens, UniProt P17612)
T19 construct: purchased Millipore, Inc. (KinaseProfiler service)
Procedure: as §1

FAK = target: T20, FAK (Homo sapiens, UniProt Q05397)
T20 construct: purchased Millipore, Inc. (KinaseProfiler service)
Procedure: as §1

MRCKbeta = target: T21, MRCKbeta (Homo sapiens, UniProt Q9Y5S2)
T21 construct: purchased Millipore, Inc. (KinaseProfiler service)
Procedure: as §1

IKKalpha = target: T22, IKKalpha (Homo sapiens, UniProt O15111)
T22 construct: purchased Millipore, Inc. (KinaseProfiler service)
Procedure: as §1

GSK3beta = target: T23, GSK3beta (Homo sapiens, UniProt P49841)
T23 construct: purchased Millipore, Inc. (KinaseProfiler service)
Procedure: as §1

MRCKalpha = target: T24, MRCKalpha (Homo sapiens, UniProt Q5VT25)
T24 construct: purchased Millipore, Inc. (KinaseProfiler service)
Procedure: as §1

Fes = target: T25, Fes (Homo sapiens, UniProt P07332)
T25 construct: purchased Millipore, Inc. (KinaseProfiler service)
Procedure: as §1

Met = target: T26, Met (Homo sapiens, UniProt P08581)
T26 construct: purchased Millipore, Inc. (KinaseProfiler service)
Procedure: as §1

EphA5 = target: T27, EphA5 (Homo sapiens, UniProt P54756)
T27 construct: purchased Millipore, Inc. (KinaseProfiler service)
Procedure: as §1

Fer = target: T28, Fer (Homo sapiens, UniProt P16591)
T28 construct: purchased Millipore, Inc. (KinaseProfiler service)
Procedure: as §1

IGF-1R Activated = target: T29, IGF-1R Activated (Homo sapiens, UniProt P08069)
T29 construct: purchased Millipore, Inc. (KinaseProfiler service)
Procedure: as §1

EphA8 = target: T30, EphA8 (Homo sapiens, UniProt P29322)
T30 construct: purchased Millipore, Inc. (KinaseProfiler service)
Procedure: as §1

PTK5 = target: T31, PTK5 (Homo sapiens, UniProt P42685)
T31 construct: purchased Millipore, Inc. (KinaseProfiler service)
Procedure: as §1

MARK2 = target: T32, MARK2 (Homo sapiens, UniProt Q7KZI7)
T32 construct: purchased Millipore, Inc. (KinaseProfiler service)
Procedure: as §1

PDGFRalpha = target: T33, PDGFRalpha (Homo sapiens, UniProt P16234)
T33 construct: purchased Millipore, Inc. (KinaseProfiler service)
Procedure: as §1

PKCbetaI = target: T34, PKCbetaI (Homo sapiens, UniProt P05771)
T34 construct: purchased Millipore, Inc. (KinaseProfiler service)
Procedure: as §1

SRC = target: T35, SRC (Homo sapiens, UniProt P12931)
T35 construct: purchased Millipore, Inc. (KinaseProfiler service)
Procedure: as §1

PRK2 = target: T36, PRK2 (Homo sapiens, UniProt Q16513)
T36 construct: purchased Millipore, Inc. (KinaseProfiler service)
Procedure: as §1

FGFR2 = target: T37, FGFR2 (Homo sapiens, UniProt P21802)
T37 construct: purchased Millipore, Inc. (KinaseProfiler service)
Procedure: as §1

GRK7 = target: T38, GRK7 (Homo sapiens, UniProt Q8WTQ7)
T38 construct: purchased Millipore, Inc. (KinaseProfiler service)
Procedure: as §1

PKCeta = target: T39, PKCeta (Homo sapiens, UniProt P24723)
T39 construct: purchased Millipore, Inc. (KinaseProfiler service)
Procedure: as §1

CDK5/p35 = target: T40, CDK5/p35 (Homo sapiens, UniProt Q00535)
T40 construct: purchased Millipore, Inc. (KinaseProfiler service)
Procedure: as §1

MSSK1 = target: T41, MSSK1 (Homo sapiens, UniProt Q9UPE1)
T41 construct: purchased Millipore, Inc. (KinaseProfiler service)
Procedure: as §1

T7 sequence (P31749 whole entry): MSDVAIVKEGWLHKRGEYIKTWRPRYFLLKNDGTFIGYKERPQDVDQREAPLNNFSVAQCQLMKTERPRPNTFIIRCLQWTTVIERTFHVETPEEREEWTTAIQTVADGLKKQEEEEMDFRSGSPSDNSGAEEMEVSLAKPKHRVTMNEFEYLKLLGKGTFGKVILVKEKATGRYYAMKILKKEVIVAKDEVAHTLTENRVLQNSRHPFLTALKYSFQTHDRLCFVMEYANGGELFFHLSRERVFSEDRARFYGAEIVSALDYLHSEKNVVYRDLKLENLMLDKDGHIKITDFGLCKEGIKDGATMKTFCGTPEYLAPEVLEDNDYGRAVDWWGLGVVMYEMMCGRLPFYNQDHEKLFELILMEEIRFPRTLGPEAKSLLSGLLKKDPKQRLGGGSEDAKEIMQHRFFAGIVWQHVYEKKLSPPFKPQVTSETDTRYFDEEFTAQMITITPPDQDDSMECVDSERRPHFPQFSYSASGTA
T17 sequence (P11362 22-822): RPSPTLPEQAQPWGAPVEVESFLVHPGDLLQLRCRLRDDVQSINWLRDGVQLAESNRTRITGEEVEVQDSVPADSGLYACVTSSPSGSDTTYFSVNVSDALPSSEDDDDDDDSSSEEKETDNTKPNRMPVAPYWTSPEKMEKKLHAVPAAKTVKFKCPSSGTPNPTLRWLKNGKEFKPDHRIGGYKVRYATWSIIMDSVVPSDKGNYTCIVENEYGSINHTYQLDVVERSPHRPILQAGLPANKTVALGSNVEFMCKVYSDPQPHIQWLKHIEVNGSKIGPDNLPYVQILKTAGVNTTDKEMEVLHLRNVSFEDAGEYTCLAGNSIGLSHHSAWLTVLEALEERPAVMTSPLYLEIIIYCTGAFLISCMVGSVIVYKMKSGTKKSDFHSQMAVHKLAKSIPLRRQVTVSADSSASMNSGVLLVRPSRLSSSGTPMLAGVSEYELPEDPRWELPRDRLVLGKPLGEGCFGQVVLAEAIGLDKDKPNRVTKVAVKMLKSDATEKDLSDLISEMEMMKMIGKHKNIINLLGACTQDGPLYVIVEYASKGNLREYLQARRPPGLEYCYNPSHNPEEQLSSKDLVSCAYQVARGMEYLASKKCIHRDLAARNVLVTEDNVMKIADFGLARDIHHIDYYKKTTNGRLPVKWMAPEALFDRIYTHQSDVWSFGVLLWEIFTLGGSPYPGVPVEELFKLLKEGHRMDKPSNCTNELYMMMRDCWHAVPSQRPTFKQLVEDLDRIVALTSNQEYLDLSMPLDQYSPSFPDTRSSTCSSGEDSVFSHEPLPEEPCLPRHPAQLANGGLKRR
T23 sequence (P49841 whole entry): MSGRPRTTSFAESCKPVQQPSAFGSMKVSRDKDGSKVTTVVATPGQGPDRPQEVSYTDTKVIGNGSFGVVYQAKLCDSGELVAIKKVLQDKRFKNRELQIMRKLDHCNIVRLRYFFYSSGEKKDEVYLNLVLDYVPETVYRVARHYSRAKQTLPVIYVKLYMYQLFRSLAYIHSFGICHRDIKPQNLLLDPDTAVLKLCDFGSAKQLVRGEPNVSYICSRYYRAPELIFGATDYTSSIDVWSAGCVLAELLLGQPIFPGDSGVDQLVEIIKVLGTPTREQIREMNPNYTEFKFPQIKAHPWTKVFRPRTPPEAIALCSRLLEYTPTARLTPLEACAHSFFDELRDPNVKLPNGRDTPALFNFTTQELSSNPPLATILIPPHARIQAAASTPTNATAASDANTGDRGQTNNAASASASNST
T33 sequence (P16234 24-1089): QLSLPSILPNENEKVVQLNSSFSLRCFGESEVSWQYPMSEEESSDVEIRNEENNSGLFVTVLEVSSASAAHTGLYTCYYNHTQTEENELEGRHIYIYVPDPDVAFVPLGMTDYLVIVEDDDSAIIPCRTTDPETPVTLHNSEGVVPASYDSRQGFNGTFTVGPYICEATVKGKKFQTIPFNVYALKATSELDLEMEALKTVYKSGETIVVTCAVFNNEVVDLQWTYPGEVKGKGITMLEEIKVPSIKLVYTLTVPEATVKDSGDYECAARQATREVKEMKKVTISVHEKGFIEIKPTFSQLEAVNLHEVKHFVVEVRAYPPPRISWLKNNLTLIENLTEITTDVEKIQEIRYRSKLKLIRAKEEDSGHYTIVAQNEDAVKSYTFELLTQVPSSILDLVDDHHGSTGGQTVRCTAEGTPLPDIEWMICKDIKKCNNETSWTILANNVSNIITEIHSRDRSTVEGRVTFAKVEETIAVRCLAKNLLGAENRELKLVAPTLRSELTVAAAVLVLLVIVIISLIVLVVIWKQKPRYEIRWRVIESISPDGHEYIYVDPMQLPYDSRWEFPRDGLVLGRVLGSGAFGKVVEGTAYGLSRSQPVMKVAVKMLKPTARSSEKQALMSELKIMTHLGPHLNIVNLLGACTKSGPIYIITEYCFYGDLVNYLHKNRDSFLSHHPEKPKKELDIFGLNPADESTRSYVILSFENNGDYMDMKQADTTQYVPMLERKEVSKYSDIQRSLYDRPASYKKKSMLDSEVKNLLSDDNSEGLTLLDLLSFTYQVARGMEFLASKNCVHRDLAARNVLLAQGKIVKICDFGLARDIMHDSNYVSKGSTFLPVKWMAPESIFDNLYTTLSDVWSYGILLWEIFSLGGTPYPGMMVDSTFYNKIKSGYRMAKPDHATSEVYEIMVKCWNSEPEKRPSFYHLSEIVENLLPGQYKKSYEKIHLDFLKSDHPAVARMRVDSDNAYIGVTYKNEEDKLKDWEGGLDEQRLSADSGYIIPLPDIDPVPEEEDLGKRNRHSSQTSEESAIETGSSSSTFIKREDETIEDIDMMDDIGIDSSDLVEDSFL
T20 sequence (Q05397 whole entry): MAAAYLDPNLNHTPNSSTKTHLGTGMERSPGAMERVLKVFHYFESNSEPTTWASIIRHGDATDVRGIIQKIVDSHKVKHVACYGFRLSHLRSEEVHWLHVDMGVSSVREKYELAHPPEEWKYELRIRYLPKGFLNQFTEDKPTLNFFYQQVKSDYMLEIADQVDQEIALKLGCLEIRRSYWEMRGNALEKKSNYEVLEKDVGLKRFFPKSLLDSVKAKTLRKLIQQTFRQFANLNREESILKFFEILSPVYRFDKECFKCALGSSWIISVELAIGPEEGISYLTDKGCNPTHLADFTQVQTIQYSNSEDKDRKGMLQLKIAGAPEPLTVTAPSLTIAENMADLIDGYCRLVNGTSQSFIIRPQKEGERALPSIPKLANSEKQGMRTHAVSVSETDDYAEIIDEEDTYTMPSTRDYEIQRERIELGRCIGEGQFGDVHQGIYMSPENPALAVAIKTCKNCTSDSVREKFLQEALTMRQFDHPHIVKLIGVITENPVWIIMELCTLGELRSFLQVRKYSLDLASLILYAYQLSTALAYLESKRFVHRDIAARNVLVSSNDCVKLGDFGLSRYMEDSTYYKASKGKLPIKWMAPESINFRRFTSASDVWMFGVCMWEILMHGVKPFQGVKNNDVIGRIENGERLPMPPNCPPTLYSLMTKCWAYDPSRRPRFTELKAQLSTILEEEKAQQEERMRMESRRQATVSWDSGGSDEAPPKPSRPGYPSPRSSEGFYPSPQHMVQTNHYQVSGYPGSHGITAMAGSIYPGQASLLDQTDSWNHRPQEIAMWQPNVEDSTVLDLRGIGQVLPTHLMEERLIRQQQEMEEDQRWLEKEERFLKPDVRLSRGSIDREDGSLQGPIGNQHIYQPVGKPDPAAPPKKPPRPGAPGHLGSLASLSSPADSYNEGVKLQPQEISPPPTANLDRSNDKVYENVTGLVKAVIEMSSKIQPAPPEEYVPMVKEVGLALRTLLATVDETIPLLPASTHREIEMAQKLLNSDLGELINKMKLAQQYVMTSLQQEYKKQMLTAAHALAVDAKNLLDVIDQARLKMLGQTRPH
T9 sequence (Q13976 whole entry): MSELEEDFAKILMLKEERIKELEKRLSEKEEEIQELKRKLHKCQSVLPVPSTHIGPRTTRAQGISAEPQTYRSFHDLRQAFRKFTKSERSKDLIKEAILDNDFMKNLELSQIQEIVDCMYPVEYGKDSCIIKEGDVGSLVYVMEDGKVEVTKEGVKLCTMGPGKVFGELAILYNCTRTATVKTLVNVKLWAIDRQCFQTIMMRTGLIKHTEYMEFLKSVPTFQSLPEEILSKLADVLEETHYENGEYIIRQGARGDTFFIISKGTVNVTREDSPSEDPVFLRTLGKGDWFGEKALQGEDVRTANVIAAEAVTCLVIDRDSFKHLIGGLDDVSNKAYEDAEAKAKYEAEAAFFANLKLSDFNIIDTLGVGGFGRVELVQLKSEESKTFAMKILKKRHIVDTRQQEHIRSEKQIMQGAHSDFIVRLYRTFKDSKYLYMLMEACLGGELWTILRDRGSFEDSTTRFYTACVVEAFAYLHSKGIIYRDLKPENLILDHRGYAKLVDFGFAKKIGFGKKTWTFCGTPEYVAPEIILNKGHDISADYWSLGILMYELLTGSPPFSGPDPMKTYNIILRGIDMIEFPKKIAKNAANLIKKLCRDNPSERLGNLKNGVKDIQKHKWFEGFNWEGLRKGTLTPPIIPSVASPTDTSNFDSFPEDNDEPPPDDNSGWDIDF
T16 sequence (Q9UBE8 whole entry): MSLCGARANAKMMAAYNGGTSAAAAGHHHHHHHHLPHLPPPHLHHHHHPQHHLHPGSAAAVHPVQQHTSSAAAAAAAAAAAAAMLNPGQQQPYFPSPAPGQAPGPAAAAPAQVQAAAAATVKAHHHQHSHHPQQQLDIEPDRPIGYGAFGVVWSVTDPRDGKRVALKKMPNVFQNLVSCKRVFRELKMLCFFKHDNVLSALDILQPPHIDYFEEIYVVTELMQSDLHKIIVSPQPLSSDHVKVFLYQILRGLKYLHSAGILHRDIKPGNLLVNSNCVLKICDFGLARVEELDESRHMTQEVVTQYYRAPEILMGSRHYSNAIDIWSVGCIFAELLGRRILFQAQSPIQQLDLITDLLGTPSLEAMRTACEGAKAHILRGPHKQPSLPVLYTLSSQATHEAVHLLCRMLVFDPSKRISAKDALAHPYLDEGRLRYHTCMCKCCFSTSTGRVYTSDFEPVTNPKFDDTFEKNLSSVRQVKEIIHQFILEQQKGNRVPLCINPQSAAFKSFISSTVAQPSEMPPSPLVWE

SMILES: Cc1c(-c2cnn(C)c2)nn(-c2ccccc2)c1NC(=O)Nc1sc(C(F)(F)F)nc1-c1ccccc1 [Example 2, 1-(1′,4-dimethyl-1-phenyl-1H,1′H-[3,4′-bipyrazol]-5-yl)-3-(4-phenyl-2-(trifluoromethyl)thiazol-5-yl)urea]
- Avg POC (JAK3): 113 POC
- Avg POC (MKK7beta): 143.5 POC
- Avg POC (PAK6): 135 POC
- Avg POC (ZAP-70): 133 POC
- Avg POC (CK2alpha2): 104 POC
- Avg POC (CAMK2b): 102 POC
- Avg POC (AKT1): 133 POC
- Avg POC (Yes): 128.5 POC
- Avg POC (PRKG1alpha): 118 POC
- Avg POC (Flt3): 98 POC
- Avg POC (p38gamma): 105 POC
- Avg POC (CK2): 95 POC
- Avg POC (Rsk1): 123.5 POC
- Avg POC (DCAMKL2): 210.5 POC
- Avg POC (MAP3K5): 107.5 POC
- Avg POC (NLK): 125.5 POC
- Avg POC (FGFR1): 80.5 POC
- Avg POC (MSK2): 136 POC
- Avg POC (PKAC-alpha): 134 POC
- Avg POC (FAK): 106 POC
- Avg POC (MRCKbeta): 113 POC
- Avg POC (IKKalpha): 133 POC
- Avg POC (GSK3beta): 127.5 POC
- Avg POC (MRCKalpha): 147.5 POC
- Avg POC (Fes): 121.5 POC
- Avg POC (Met): 120 POC
- Avg POC (EphA5): 118.5 POC
- Avg POC (Fer): 78.5 POC
- Avg POC (IGF-1R Activated): 97.5 POC
- Avg POC (EphA8): 118.5 POC
- Avg POC (PTK5): 104.5 POC
- Avg POC (MARK2): 100.5 POC
- Avg POC (PDGFRalpha): 102.5 POC
- Avg POC (PKCbetaI): 102 POC
- Avg POC (SRC): 110.5 POC
- Avg POC (PRK2): 104.5 POC
- Avg POC (FGFR2): 116.5 POC
- Avg POC (GRK7): 112 POC
- Avg POC (PKCeta): 103.5 POC
- Avg POC (CDK5/p35): 111 POC
- Avg POC (MSSK1): 132 POC
